{"source": "patent US8524493B2", "about": "“Released cytokeratins as markers for epithelial cells” (Centre Hospitalier Universitaire de Montpellier, priority 2006, dated 2013)", "test_system": "CK19 protein release by viable epithelial cells (cell lines)", "assay": "CK19-EPISPOT assay with cycloheximide in cell-cultures", "assay_type": "cell-based, human", "settings": "cell lines incubated with 50 μg/mL cycloheximide during the incubation step of the EPISPOT assay", "description": "EPISPOT assays. Immobilon-P membrane 96-well plates (MAIPN450, Millipore Corporation, Bedford, Mass.) were coated overnight at 4° C. with the anti-CK19 mAb Ks19.1 (6 μg/mL) (Progen Biotechnik GMBH, Heidelberg, […].). Unbound mAb were removed by washing three times with PBS. The plates were then blocked with PBS supplemented with 5% FCS (Sigma, Chemical Co., Saint Louis, Mo.) for 1 h at room temperature and washed three times with PBS. To block protein synthesis, cell lines were incubated with 50 μg/mL of cycloheximide during the EPISPOT assay. Subsequently, viable cells were counted in a Kovac slide with trypan blue dye exclusion staining and finally plated in three replicate wells at different concentrations (1×10^5, 1×10^4, 1×10^3, 1×10^2, 10 and 1 cells). In addition, 5×10^4 to 1×10^5 of enriched CD45^− cells (i) from blood and bone marrow of colon and breast cancer patients, respectively, (ii) from the milk of healthy lactating women (normal primary mammary cells) or (iii) from normal and tumor colon tissues were seeded in different wells of the plates. […] Immunospots were counted by video camera imaging and computer assisted analysis (KS ELISPOT, Carl Zeiss Vision, Halbermoos, Germany). […]", "data": [{"smiles": "C[C@@H]1C[C@@H]([C@H](O)CC2CC(=O)NC(=O)C2)C(=O)[C@@H](C)C1", "note": "[cycloheximide]", "values": [{"measurement": "size and number of CK19 immunospots (CK19-releasing cells)", "result": "decrease in the size and the number of spots"}]}]}
